# What was measured:
# [1] = system: TNFα production in LPS-stimulated human monocytes; experiment: Cot Monocyte TNFα Cell Based Assay; settings: Homo sapiens, Monocyte, LPS-stimulated human monocytes, TNFα TR-FRET; read-out: EC50 TNF
# In short: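 Cells at 5,000/well were pretreated with compound for 1 h at 37 °C (0.5% DMSO final), then stimulated with 50 pg/ml LPS for 4 h at 37 °C. Supernatant TNFα was measured by two-antibody TR-FRET after overnight room-temperature incubation; values are percent of control between unstimulated and stimulated wells.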
# [2] = biological target: T1, human Cot catalytic domain (30-397 amino acids) (Homo sapiens, UniProt P41279); experiment: High Throughput Cot Biochemical Assay (KinEASE TR-FRET); settings: Cot KinEASE TR-FRET, 400 μM ATP; read-out: IC50 HTRF
# T1 construct: Purified recombinant human Cot catalytic domain (30-397 amino acids) was purchased from Cama Biosciences; purchased Cama Biosciences (so in the source)
# In short: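 Reaction of 5 nM recombinant human Cot catalytic domain (aa 30-397) with 1 μM STK3 peptide (XL665-labeled) and 400 μM ATP in 10 mM MOPS pH 7.0, 10 mM MgOAc, 1 mM DTT, 0.5 mg/mL BSA, 0.1% DMSO. Phosphopeptide detected by TR-FRET with europium anti-phospho antibody.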
# T1 sequence (P41279 30-397): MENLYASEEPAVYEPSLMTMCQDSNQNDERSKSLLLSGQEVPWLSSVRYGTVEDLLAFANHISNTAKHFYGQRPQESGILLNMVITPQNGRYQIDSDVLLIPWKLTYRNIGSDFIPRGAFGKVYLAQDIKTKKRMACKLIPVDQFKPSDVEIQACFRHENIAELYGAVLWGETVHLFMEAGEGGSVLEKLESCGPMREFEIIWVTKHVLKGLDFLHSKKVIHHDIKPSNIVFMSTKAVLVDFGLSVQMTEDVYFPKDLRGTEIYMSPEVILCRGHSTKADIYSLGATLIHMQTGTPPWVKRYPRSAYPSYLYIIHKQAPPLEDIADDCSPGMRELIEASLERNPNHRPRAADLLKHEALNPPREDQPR
Compound,EC50 [1] [nM],IC50 [2] [nM]
"CC[C@@H](Nc1c(C#N)cnc2c(C#N)cc(N[C@@H](c3cccc(C(N)=O)c3)c3cn(C4CC4)nn3)cc12)c1ccccc1 [Example 942, 3-((S)-(1-cyclopropyl-1H-1,2,3-triazol-4-yl) ((3,8-dicyano-4-(((R)-1-phenylpropyl)amino)quinolin-6-yl)amino)methyl)benzamide]",141,1
"CC[C@@H](Nc1c(C#N)cnc2c(C#N)cc(N[C@@H](c3cccc(C(=O)N4CC(F)(F)C4)c3)c3cn(C4CC4)nn3)cc12)c1ccccc1 [Example 943, 6-(((S)-(1-cyclopropyl-1H-1,2,3-triazol-4-yl)(3-(3,3-difluoroazetidine-1-carbonyl)phenyl)methyl)amino)-4-(((R)-1-phenylpropyl)amino)quinoline-3,8-dicarbonitrile]",93,4
"CC[C@@H](Nc1c(C#N)cnc2c(Br)cc(N[C@@H](c3cccc(C(N)=O)c3)c3cn(C4CC4)nn3)cc12)c1ccccc1 [Example 944, 3-((S)-((8-bromo-3-cyano-4-(((R)-1-phenylpropyl)amino)quinolin-6-yl)amino)(1-cyc1opropyl-1H-1,2,3-triazol-4-yl)methyl)benzamide]",51,1
"N#CCC[C@@H](Nc1c(C#N)cnc2c(C#N)cc(N[C@H](c3cn(C4CC4)nn3)c3ccccc3Cl)cc12)c1ccccc1 [Example 945, 6-(((S)-(2-chlorophenyl)(1-cyclopropyl-1H-1,2,3-triazol-4-yl)methyl)amino)-4-(((R)-3-cyano-1-phenylpropyl)amino)quinoline-3,8-dicarbonitrile]",29,2
"[2H][C@](Nc1cc(Cl)c2ncc(C#N)c(Nc3cccc(Cl)c3C(C)=O)c2c1)(c1ccc(F)cc1)c1cn(C2CC2)nn1 [Example 946, (S)-4-((2-acetyl-3-chlorophenyl)amino)-8-chloro-6-(((1-cyclopropyl-1H-1,2,3-triazol-4-yl) (4-fluorophenyl)methyl-d)amino)quinoline-3-carbonitrile]",≥ 1000,745
"[2H][C@](Nc1cc(Cl)c2ncc(C#N)c(Nc3cccc(Cl)c3)c2c1)(c1ccc(F)cc1)c1cn(C2CC2)nn1 [Example 947, (S)-8-chloro-4-((3-chlorophenyl)amino)-6-(((1-cyclopropyl-1H-1,2,3-triazol-4-yl)(4-fluorophenyl)methyl-d)amino)quinoline-3-carbonitrile]",282,14
"CC[C@@H](Nc1c(C#N)cnc2c(C#N)cc(N[C@@H](c3cccc(C(=O)NC)c3)c3cn(C4CC4)nn3)cc12)c1ccccc1 [Example 948, 3-((S)-(1-cyclopropyl-1H-1,2,3-triazol-4-yl) ((3,8-dicyano-4-(((R)-1-phenylpropyl)amino)quinolin-6-yl)amino)methyl)-N-methylbenzamide]",78,1
"N#CCC[C@@H](Nc1c(C#N)cnc2c(C#N)cc(N[C@@H](c3ccccc3)c3cn(C4CC4)nn3)cc12)c1ccccc1 [Example 949, 4-(((R)-3-cyano-1-phenylpropyl)amino)-6-(((S)-(1-cyclopropyl-1H-1,2,3-triazol-4-yl)(phenyl)methyl)amino) quinoline-3,8-dicarbonitrile]",19,1
"[2H][C@](Nc1cc(-c2cncnc2)c2ncc(C#N)c(N[C@H](CCC(=O)O)c3ccccc3)c2c1)(c1ccc(F)cc1)c1cn(C2CC2)nn1 [Example 950, (R)-4-((3-cyano-6-(((S)-(1-cyclopropyl-1H-1,2,3-triazol-4-yl)(4-fluorophenyl)methyl-d)amino)-8-(pyrimidin-5-yl)quinolin-4-yl)amino)-4-phenylbutanoic acid]",≥ 1000,≥ 10000
"[2H][C@@](Nc1cc(-c2cncnc2)c2ncc(C#N)c(N[C@H](CCC(=O)O)c3ccccc3)c2c1)(c1cn(C2CC2)nn1)c1ccccc1Cl [Example 951, (R)-4-((6-(((S)-(2-chlorophenyl)(1-cyclopropyl-1H-1,2,3-triazol-4-yl)methyl-d)amino)-3-cyano-8-(pyrimidin-5-yl)quinolin-4-yl)amino)-4-phenylbutanoic acid]",≥ 1000,≥ 10000
"CCN1CCC(n2cc([C@@H](Nc3cc(Cl)c4ncc(C#N)c(NCC(C)(C)C)c4c3)c3ccc(Cl)cc3)nn2)CC1 [Example 954, (S)-8-chloro-6-(((4-chlorophenyl)(1-(1-ethylpiperidin-4-yl)-1H-1,2,3-triazol-4-yl)methyl)amino)-4-(neopentylamino)quinoline-3-carbonitrile]",130,5
"CCN1CCC(n2cc([C@@H](Nc3cc(Cl)c4ncc(C#N)c(N[C@H](CCC#N)c5ccccc5)c4c3)c3ccc(Cl)cc3)nn2)CC1 [Example 955, 8-chloro-6-(((S)-(4-chlorophenyl)(1-(1-ethylpiperidin-4-yl)-1H-1,2,3-triazol-4-yl)methyl)amino)-4-(((R)-3-cyano-1-phenylpropyl)amino)quinoline-3-carbonitrile]",31,2
"[2H]C(Nc1cc(Cl)c2ncc(C#N)c(NCC(C)(C)C)c2c1)(c1cn(C2(C3CC3)CC2)nn1)c1ccccc1Cl (stereo not drawn) [Example 958, 6-(((1-([1,1'-bi(cyclopropan)]-1-yl)-1H-1,2,3-triazol-4-yl)(2-chlorophenyl)methyl-d)amino)-8-chloro-4-(neopentylamino)quinoline-3-carbonitrile]",460,31
"[2H][C@@](Nc1cc(Cl)c2ncc(C#N)c(NCC(C)(C)C)c2c1)(c1cn(C2(c3cccnc3)CC2)nn1)c1ccccc1Cl [Example 960, 8-chloro-6-(((2-chlorophenyl)(1-(1-(pyridin-3-yl)cyclopropyl)-1H-1,2,3-triazol-4-yl)methyl-d)amino)-4-(neopentylamino)quinoline-3-carbonitrile]",86,12
"N#CCC[C@@H](Nc1c(C#N)cnc2c(C#N)cc(N[C@@H](c3ccccc3)c3cn(C4(C#N)CC4)nn3)cc12)c1ccccc1 [Example 961, 4-(((R)-3-cyano-1-phenylpropyl)amino)-6-(((S)-(1-(1-cyanocyclopropyl)-1H-1,2,3-triazol-4-yl)(phenyl)methyl)amino) quinoline-3,8-dicarbonitrile]",21,1
"[2H][C@](Nc1cc(Cl)c2ncc(C#N)c(Nc3cccc(Cl)c3OC(F)(F)F)c2c1)(c1ccc(F)cc1)c1cn(C2CC2)nn1 [Example 966, (S)-8-chloro-4-((3-chloro-2-(trifluoromethoxy)phenyl)amino)-6-(((1-cyclopropyl-1H-1,2,3-triazol-4-yl)(4-fluorophenyl)methyl-d)amino)quinoline-3-carbonitrile]",≥ 1000,86
[2H][C@](Nc1cc(Cl)c2ncc(C#N)c(NC3(C(F)F)CC3)c2c1)(c1ccc(F)cc1)c1cn(C2CC2)nn1 [Example 967],≥ 1000,714

# Continued, values first:
EC50 [1] [nM],IC50 [2] [nM],Compound
134,8,"CC(C)(C)CNc1c(C#N)cnc2c(C#N)cc(N[C@H](c3cn(C4(C#N)CCC4)nn3)c3ccccc3Cl)cc12 [Example 952, (S)-6-(((2-chlorophenyl)(1-(1-cyanocyclobutyl)-1H-1,2,3-triazol-4-yl)methyl)amino)-4-(neopentylamino)quinoline-3,8-dicarbonitrile]"
≥ 1000,111,"[2H][C@@](Nc1cc(I)c2ncc(C#N)c(NCC(C)(C)C)c2c1)(c1cn(C2CC2)nn1)c1ccccc1Cl [Example 953, (S)-6-(((2-chlorophenyl)(1-cyclopropyl-1H-1,2,3-triazol-4-yl)methyl-d)amino)-8-iodo-4-(neopentylamino)quinoline-3-carbonitrile]"
61,5,"CC(C)(C)CNc1c(C#N)cnc2c(C#N)cc(N[C@H](c3cn(C4(C#N)CC4)nn3)c3ccccc3Cl)cc12 [Example 956, (S)-6-(((2-chlorophenyl)(1-(1-cyanocyclopropyl)-1H-1,2,3-triazol-4-yl)methyl)amino)-4-(neopentylamino)quinoline-3,8-dicarbonitrile]"
170,3,"CC(C)(C)CNc1c(C#N)cnc2c(C#N)cc(N[C@H](c3cn(C4(C(N)=O)CC4)nn3)c3ccccc3Cl)cc12 [Example 957, (S)-1-(4-((2-chlorophenyl)((3,8-dicyano-4-(neopentylamino)quinolin-6-yl)amino)methyl)-1H-1,2,3-triazol-1-yl)cyclopropane-1-carboxamide]"
116,7,"CC(C)(C)CNc1c(C#N)cnc2c(C#N)cc(N[C@H](c3cn(C4(C)CC4)nn3)c3ccccc3Cl)cc12 [Example 962, (S)-6-(((2-chlorophenyl)(1-(1-methylcyclopropyl)-1H-1,2,3-triazol-4-yl)methyl)amino)-4-(neopentylamino)quinoline-3,8-dicarbonitrile]"
777,3,"CC(C)(C)CNc1c(C#N)cnc2c(C#N)cc(N[C@H](c3cn(CC(N)=O)nn3)c3ccccc3Cl)cc12 [Example 963, (S)-2-(4-((2-chlorophenyl) ((3,8-dicyano-4-(neopentylamino)quinolin-6-yl)amino)methyl)-1H-1,2,3-triazol-1-yl)acetamide]"
286,14,"[2H][C@](Nc1cc(Cl)c2ncc(C#N)c(NCC(C)(C)C)c2c1)(c1cn(C2(CO)COC2)nn1)c1ccccc1Cl [Example 965, 8-chloro-6-(((2-chlorophenyl) (1-(3-(hydroxymethyl)oxetan-3-yl)-1H-1,2,3-triazol-4-yl)methyl-d)amino)-4-(neopentylamino) quinoline-3-carbonitrile]"
